Literature values, collected in PubChem BioAssay AID1259409 (Chemical Carcinogenesis Research Information System (CCRIS), 2018).

System: rodent chemically induced tumor inhibition, incidence and multiplicity
Test: CCRIS tumor inhibitor studies
Settings: Dose [Inhibitor]: 0

SMILES	tumour outcome (control, treated, inhibition, significance) (Carcinogen: DIETHYLNITROSAMINE, 55-18-5, 0.5-1 MG IN PELLET IMPLANTED 1/MONTH FOR 26 WK BEGINNING 30 D POST CARCINOGEN TREATMENT. DOSING BEGAN SAME DAY OF ORC, Route [Inhibitor]: SUBCUTANEOUS, Species: MOUSE, Strain/Sex: B6C3F1/MALE, Target Tissue: Type of Lesion: LIVER: TUMOR, Dose [Carcinogen]: 2.5 UG/G BW IN SALINE ONCE, Promoter: NONE)	tumour outcome (control, treated, inhibition, significance) (Carcinogen: N-ETHYL-N-NITROSOUREA, 759-73-9, 0.1 MG PELLET IMPLANTED WITHIN 24 HR OF BIRTH AND REPLACED EVERY 2 MO (STUDY DURATION: 8 MO), Route [Inhibitor]: SUBCUTANEOUS IMPLANT, Species: RAT, Strain/Sex: WF X LE F1/FEMALE, Target Tissue: Type of Lesion: TRIGEMINAL NERVE: SCHWANNOMA, Dose [Carcinogen]: 40 MG/KG ONCE WITHIN 24 HR OF BIRTH, Promoter: NONE USED)	outcome (Carcinogen: N-ETHYL-N-NITROSOUREA, 759-73-9, 0.1 MG PELLET IMPLANTED WITHIN 24 HR OF BIRTH AND REPLACED EVERY 2 MO (STUDY DURATION: 8 MO), Route [Inhibitor]: SUBCUTANEOUS IMPLANT, Species: RAT, Strain/Sex: WF X LE F1/MALE, Target Tissue: Type of Lesion: KIDNEY: TUMOR, Dose [Carcinogen]: 40 MG/KG ONCE WITHIN 24 HR OF BIRTH, Promoter: NONE USED)	tumour outcome (control, treated, inhibition, significance) (Carcinogen: N-ETHYL-N-NITROSOUREA, 759-73-9, 0.1 MG PELLET IMPLANTED WITHIN 24 HR OF BIRTH AND REPLACED EVERY 2 MO (STUDY DURATION: 8 MO), Route [Inhibitor]: SUBCUTANEOUS IMPLANT, Species: RAT, Strain/Sex: WF X LE F1/MALE, Target Tissue: Type of Lesion: TRIGEMINAL NERVE: SCHWANNOMA, Dose [Carcinogen]: 40 MG/KG ONCE WITHIN 24 HR OF BIRTH, Promoter: NONE USED)	tumour outcome (control, treated, inhibition, significance) (Carcinogen: N-METHYL-N-NITROSOUREA, 684-93-5, 2.5 MG IN CHOLESTEROL PELLET IMPLANTED 2 WK PRIOR TO CARCINOGEN DOSE AND REPLACED EVERY 4 WK (STUDY DURATION: 36 WK), Route [Inhibitor]: SUBCUTANEOUS IMPLANT, Species: RAT, Strain/Sex: F344/FEMALE, Target Tissue: Type of Lesion: MAMMARY GLAND: CARCINOMA, Dose [Carcinogen]: 50 MG/KG BW ONCE, Promoter: NONE USED)	tumour outcome (control, treated, inhibition, significance) (Carcinogen: N-METHYL-N-NITROSOUREA, 684-93-5, 2.5 MG IN CHOLESTEROL PELLET IMPLANTED AT TIME OF CARCINOGEN DOSE AND REPLACED EVERY 4 WK (STUDY DURATION: 35 WK), Route [Inhibitor]: SUBCUTANEOUS IMPLANT, Species: RAT, Strain/Sex: F344/MALE, Target Tissue: Type of Lesion: MAMMARY GLAND: CARCINOMA, Dose [Carcinogen]: 50 MG/KG BW ONCE, Promoter: NONE USED)	tumour outcome (control, treated, inhibition, significance) (Carcinogen: N-METHYL-N-NITROSOUREA, 684-93-5, 20 UG IN SILASTIC CAPSULES FOR 3 WK IMPLANTED 2 WK POST CARCINOGEN TREATMENT (STUDY DURATION: 10 MO), Route [Inhibitor]: SUBCUTANEOUS, Species: RAT, Strain/Sex: LEWIS/FEMALE, Target Tissue: Type of Lesion: MAMMARY GLAND: TUMOR, Dose [Carcinogen]: 50 MG/KG BW ONCE AT 7 WK OF AGE)	tumour outcome (control, treated, inhibition, significance) (Carcinogen: N-METHYL-N-NITROSOUREA, 684-93-5, 30 MG IN SILASTIC CAPSULES FOR 3 WK IMPLANTED 2 WK POST CARCINOGEN TREATMENT (STUDY DURATION: 10 MO), Route [Inhibitor]: SUBCUTANEOUS, Species: RAT, Strain/Sex: LEWIS/FEMALE, Target Tissue: Type of Lesion: MAMMARY GLAND: TUMOR, Dose [Carcinogen]: 50 MG/KG BW ONCE AT 7 WK OF AGE)	tumour outcome (control, treated, inhibition, significance) (Carcinogen: N-METHYL-N-NITROSOUREA, 684-93-5, 100 UG IN SILASTIC CAPSULES FOR 2 WK IMPLANTED 2 WK POST CARCINOGEN TREATMENT (STUDY DURATION: 10 MO), Route [Inhibitor]: SUBCUTANEOUS, Species: RAT, Strain/Sex: LEWIS/FEMALE, Target Tissue: Type of Lesion: MAMMARY GLAND: TUMOR, Dose [Carcinogen]: 50 MG/KG BW ONCE AT 7 WK OF AGE)	tumour outcome (control, treated, inhibition, significance) (Carcinogen: N-METHYL-N-NITROSOUREA, 684-93-5, 100 UG IN SILASTIC CAPSULES FOR 3 WK IMPLANTED 2 WK POST CARCINOGEN TREATMENT (STUDY DURATION: 10 MO), Route [Inhibitor]: SUBCUTANEOUS, Species: RAT, Strain/Sex: LEWIS/FEMALE, Target Tissue: Type of Lesion: MAMMARY GLAND: TUMOR, Dose [Carcinogen]: 50 MG/KG BW ONCE AT 7 WK OF AGE)	tumour outcome (control, treated, inhibition, significance) (Carcinogen: N-METHYL-N-NITROSOUREA, 684-93-5, 200 UG IN SILASTIC CAPSULES FOR 1 WK IMPLANTED 2 WK POST CARCINOGEN TREATMENT (STUDY DURATION: 10 MO), Route [Inhibitor]: SUBCUTANEOUS, Species: RAT, Strain/Sex: LEWIS/FEMALE, Target Tissue: Type of Lesion: MAMMARY GLAND: TUMOR, Dose [Carcinogen]: 50 MG/KG BW ONCE AT 7 WK OF AGE)	tumour outcome (control, treated, inhibition, significance) (Carcinogen: N-METHYL-N-NITROSOUREA, 684-93-5, 200 UG IN SILASTIC CAPSULES FOR 3 WK IMPLANTED 2 WK POST CARCINOGEN TREATMENT (STUDY DURATION: 10 MO), Route [Inhibitor]: SUBCUTANEOUS, Species: RAT, Strain/Sex: LEWIS/FEMALE, Target Tissue: Type of Lesion: MAMMARY GLAND: TUMOR, Dose [Carcinogen]: 50 MG/KG BW ONCE AT 7 WK OF AGE)	tumour outcome (control, treated, inhibition, significance) (Carcinogen: 7,12-DIMETHYLBENZ[A]ANTHRACENE, 57-97-6, 16 NMOL IN 0.1 ML ACETONE 2/WK FOR 20 WK APPLIED 40 MIN PRIOR TO EACH PROMOTER DOSE (STUDY DURATION: 21 WK), Route [Inhibitor]: DERMAL, Species: MOUSE, Strain/Sex: ICR/FEMALE, Target Tissue: Type of Lesion: SKIN: TUMOR, Dose [Carcinogen]: 0.19 UMOL IN 0.1 ML ACETONE ONCE, Promoter: 12-O-TETRADECANOYLPHORBOL-13-ACETATE, 16561-29-8)	tumour outcome (control, treated, inhibition, significance) (Carcinogen: 7,12-DIMETHYLBENZ[A]ANTHRACENE, 57-97-6, 160 NMOL IN 0.1 ML ACETONE 2/WK FOR 20 WK APPLIED 40 MIN PRIOR TO EACH PROMOTER DOSE (STUDY DURATION: 21 WK), Route [Inhibitor]: DERMAL, Species: MOUSE, Strain/Sex: ICR/FEMALE, Target Tissue: Type of Lesion: SKIN: TUMOR, Dose [Carcinogen]: 0.19 UMOL IN 0.1 ML ACETONE ONCE, Promoter: 12-O-TETRADECANOYLPHORBOL-13-ACETATE, 16561-29-8)
C[C@]12CC[C@@H]3c4ccc(O)cc4CC[C@H]3[C@@H]1CC[C@@H]2O	19/30 (63%), 6/23 (26%), 59%, not significant	14/19 (74%), 12/20 (60%), 19%, not calculated	0/21 (0%), 7/22 (32%), -100%, not calculated	19/21 (91%), 13/22 (59%), 35%, p<0.05	10/20 (50%), 1/28 (4%), 92%, p<0.01	10?20 (50%), 7/16 (44%), 12%, not significant	11/11 (100%), 8/11 (73%), 27%, not significant	11/11 (100%), 2/12 (17%), 83%, p<0.001	13/15 (87%), 7/16 (44%), 49%, p<0.05	11/11 (100%), 2/12 (17%), 83%, p<0.001	13/15 (87%), 3/15 (20%), 77%, p<0.01	11/11 (100%), 2/12 (17%), 83%, p<0.001	–	–
C=CC1=C(C)C2=NC1=CC1=NC(=CC3=C(C)C4=C(O)[C@H](C(=O)OC)C(=C5NC(=C2)[C@@H](C)[C@@H]5CCC(=O)O)C4=N3)C(CC)=C1C	–	–	–	–	–	–	–	–	–	–	–	–	100%, 72%, 28%, p<0.005	100%, 69%, 31%, p<0.005
